Reference: the NIST ThermoML archive (doi:10.1016/j.jct.2018.10.006)
Numbers after ± are expanded uncertainties.

Settings: for molar entropy / mass density: 101.33 kPa; for mass density: X-ray diffraction

O=P([O-])([O-])[O-].[Cs+].[Ni+2] [cesium nickel monophosphate]
Settings | mass density [kg/m3] | molar entropy [J/K/mol]
5 K, Crystal 2, Small (less than 1 g) adiabatic calorimetry | – | 0.4664 ± 0.034
6 K, Crystal 2, Small (less than 1 g) adiabatic calorimetry | – | 0.6618 ± 0.041
7 K, Crystal 2, Small (less than 1 g) adiabatic calorimetry | – | 0.8896 ± 0.05
8 K, Crystal 2, Small (less than 1 g) adiabatic calorimetry | – | 1.147 ± 0.058
9 K, Crystal 2, Small (less than 1 g) adiabatic calorimetry | – | 1.438 ± 0.067
10 K, Crystal 2, Small (less than 1 g) adiabatic calorimetry | – | 1.763 ± 0.083
15 K, Crystal 2, Small (less than 1 g) adiabatic calorimetry | – | 3.941 ± 0.16
20 K, Crystal 2, Small (less than 1 g) adiabatic calorimetry | – | 6.944 ± 0.14
25 K, Crystal 2, Small (less than 1 g) adiabatic calorimetry | – | 10.43 ± 0.18
30 K, Crystal 2, Small (less than 1 g) adiabatic calorimetry | – | 14.35 ± 0.25
35 K, Crystal 2, Small (less than 1 g) adiabatic calorimetry | – | 18.52 ± 0.3
40 K, Crystal 2, Small (less than 1 g) adiabatic calorimetry | – | 22.78 ± 0.36
45 K, Crystal 2, Small (less than 1 g) adiabatic calorimetry | – | 27.1 ± 0.35
50 K, Crystal 2, Small (less than 1 g) adiabatic calorimetry | – | 31.46 ± 0.39
60 K, Crystal 2, Small (less than 1 g) adiabatic calorimetry | – | 40.28 ± 0.48
70 K, Crystal 2, Small (less than 1 g) adiabatic calorimetry | – | 49.01 ± 0.57
80 K, Crystal 2, Small (less than 1 g) adiabatic calorimetry | – | 57.49 ± 0.67
90 K, Crystal 2, Small (less than 1 g) adiabatic calorimetry | – | 65.63 ± 0.76
100 K, Crystal 2, Small (less than 1 g) adiabatic calorimetry | – | 73.47 ± 0.84
110 K, Crystal 2, Small (less than 1 g) adiabatic calorimetry | – | 81.12 ± 0.91
120 K, Crystal 2, Small (less than 1 g) adiabatic calorimetry | – | 88.55 ± 1
130 K, Crystal 2, Small (less than 1 g) adiabatic calorimetry | – | 95.7 ± 1.1
140 K, Crystal 2, Small (less than 1 g) adiabatic calorimetry | – | 102.6 ± 1.2
150 K, Crystal 2, Small (less than 1 g) adiabatic calorimetry | – | 109.34 ± 1.2
160 K, Crystal 2, Small (less than 1 g) adiabatic calorimetry | – | 115.9 ± 1.2
170 K, Crystal 2, Small (less than 1 g) adiabatic calorimetry | – | 122.31 ± 1.3
180 K, Crystal 2, Small (less than 1 g) adiabatic calorimetry | – | 128.54 ± 1.4
190 K, Crystal 2, Small (less than 1 g) adiabatic calorimetry | – | 134.69 ± 1.4
200 K, Crystal 2, Small (less than 1 g) adiabatic calorimetry | – | 140.68 ± 1.5
210 K, Crystal 2, Small (less than 1 g) adiabatic calorimetry | – | 146.58 ± 1.6
220 K, Crystal 2, Small (less than 1 g) adiabatic calorimetry | – | 152.32 ± 1.6
230 K, Crystal 2, Small (less than 1 g) adiabatic calorimetry | – | 157.89 ± 1.7
240 K, Crystal 2, Small (less than 1 g) adiabatic calorimetry | – | 163.38 ± 1.7
250 K, Crystal 2, Small (less than 1 g) adiabatic calorimetry | – | 168.7 ± 1.7
260 K, Crystal 2, Small (less than 1 g) adiabatic calorimetry | – | 173.94 ± 1.8
270 K, Crystal 2, Small (less than 1 g) adiabatic calorimetry | – | 179.09 ± 1.9
273.15 K, Crystal 2, Small (less than 1 g) adiabatic calorimetry | – | 180.67 ± 1.9
280 K, Crystal 2, Small (less than 1 g) adiabatic calorimetry | – | 184.17 ± 1.9
290 K, Crystal 2, Small (less than 1 g) adiabatic calorimetry | – | 189.15 ± 2
298 K, Crystal 2 | 4218.3 ± 10 | –
298.15 K, Crystal 2, Small (less than 1 g) adiabatic calorimetry | – | 193.23 ± 2
300 K, Crystal 2, Small (less than 1 g) adiabatic calorimetry | – | 194.14 ± 2
310 K, Crystal 2, Small (less than 1 g) adiabatic calorimetry | – | 199.13 ± 2.1
320 K, Crystal 2, Small (less than 1 g) adiabatic calorimetry | – | 204.04 ± 2.2
330 K, Crystal 2, Small (less than 1 g) adiabatic calorimetry | – | 208.86 ± 2.2
340 K, Crystal 2, Small (less than 1 g) adiabatic calorimetry | – | 213.68 ± 9.6
350 K, Crystal 2, Small (less than 1 g) adiabatic calorimetry | – | 218.42 ± 9.9
360 K, Crystal 2, Small (less than 1 g) adiabatic calorimetry | – | 223.08 ± 10
370 K, Crystal 2, Small (less than 1 g) adiabatic calorimetry | – | 227.82 ± 10
380 K, Crystal 2, Small (less than 1 g) adiabatic calorimetry | – | 232.47 ± 11
382.8 K, Crystal 1, DSC | – | 237.46 ± 17
382.8 K, Crystal 2, Small (less than 1 g) adiabatic calorimetry | – | 233.72 ± 11
390 K, Crystal 1, DSC | – | 240.7 ± 17
400 K, Crystal 1, DSC | – | 245.19 ± 17
410 K, Crystal 1, DSC | – | 249.52 ± 17
420 K, Crystal 1, DSC | – | 253.76 ± 18
430 K, Crystal 1, DSC | – | 257.83 ± 18
440 K, Crystal 1, DSC | – | 261.82 ± 18
450 K, Crystal 1, DSC | – | 265.73 ± 18
460 K, Crystal 1, DSC | – | 269.64 ± 19
470 K, Crystal 1, DSC | – | 273.38 ± 19
473 K, Crystal 1 | 4124 ± 22 | –
480 K, Crystal 1, DSC | – | 277.04 ± 19
490 K, Crystal 1, DSC | – | 280.7 ± 20
500 K, Crystal 1, DSC | – | 284.27 ± 20
510 K, Crystal 1, DSC | – | 287.76 ± 20
520 K, Crystal 1, DSC | – | 291.17 ± 20
530 K, Crystal 1, DSC | – | 294.58 ± 20
540 K, Crystal 1, DSC | – | 297.91 ± 21
550 K, Crystal 1, DSC | – | 301.23 ± 21
560 K, Crystal 1, DSC | – | 304.48 ± 21
570 K, Crystal 1, DSC | – | 307.64 ± 21
573 K, Crystal 1 | 4090 ± 80 | –
580 K, Crystal 1, DSC | – | 310.79 ± 22
590 K, Crystal 1, DSC | – | 313.87 ± 22
600 K, Crystal 1, DSC | – | 316.86 ± 22
610 K, Crystal 1, DSC | – | 319.86 ± 22
620 K, Crystal 1, DSC | – | 322.85 ± 22
630 K, Crystal 1, DSC | – | 325.76 ± 23
640 K, Crystal 1, DSC | – | 328.67 ± 23
650 K, Crystal 1, DSC | – | 331.58 ± 23
673 K, Crystal 1 | 4080 ± 80 | –
773 K, Crystal 1 | 4040 ± 18 | –
873 K, Crystal 1 | 4030 ± 160 | –
973 K, Crystal 1 | 4000 ± 80 | –
1073 K, Crystal 1 | 3980 ± 60 | –

Settings | Triple point temperature [K]
Crystal 2, DSC | 382.8 ± 0.8
